pEC50: −log10 of the molar value.
Legend:
human GLP-1R [1] = target: T1, human GLP-1R (Homo sapiens, UniProt P43220); experiment: GLP-1R Cell Assay 2: CHO-K1_hGLP-1Rlow_clone10 cells, LANCE Ultra cAMP TR-FRET assay; format: cell-based; design: expressed in transfected cells; details: Table 3, percent activation relative to control GLP-1 peptide agonist
Experimental: Stable cell lines expressing high and low GLP-1R surface expression were generated in CHO-K1 cells transfected (Fugene 6) with a puromycin selectable DNA plasmid encoding human GLP-1R receptor (accession number: NM_002062.5) under control of an EF1A promoter. Transfected cells were seeded into 24-well plates (9,000 cells/well) containing complete medium and incubated in a humidified incubator at 37° C. with 5% carbon dioxide. After overnight incubation, medium was replaced with complete medium supplemented with puromycin (6 μg/mL) and refreshed every 2-3 days to select for stably transfected cells. Individual pools of selected cells were expanded prior to analysis for responsiveness to GLP-1 control peptide using a TR-FRET assay to detect cAMP (LANCE Ultra cAMP Assay, Perkin Elmer). Briefly, cells were collected in Versene solution, plated in 384-well plates (1,000 cells/well) and combined with serially diluted GLP-1R control peptide (10 nL) using an acoustic dispenser (ECHO). Plates were incubated for 30 minutes at 25° C. prior to the addition of EU-cAMP tracer (5 μL) and Ulight-anti-cAMP (5 μL) reagents to each well, followed by 15 minutes incubation at 25° C. TR-FRET signal was detected using an EnVision Multimode Plate Reader (excitation=320 nm; emission=615 and 655 nm). Dose-response curves were used to generate EC50 values as a measure of responsiveness to the GLP-1R control peptide. Selected cell lines were monitored for responsiveness over multiple passages to ensure stability. […] Briefly, GLP-1R expression was analyzed by flow cytometry using a fluorescein-labeled Exendin-4 peptide fluorescent probe (FLEX). Cells were harvested in Versene solution and washed 3-times with PBS+0.5% BSA before incubation with FLEX reagent (10 μM) for 2 hours at room temperature. After incubation, cells were washed 3-times in PBS+0.5% BSA before final resuspension in PBS prior to analysis by flow cytometry to measure FLEX mean fluorescence intensity (MFI) as a measure of GLP-1R expression on the cell surface.
For compound testing in the CHO-K1_hGLP-1Rlow_clonel0 cell lines, cells were seeded in 384-well plates (1,000 cells/well). Test compounds were serially diluted in DMSO (10-point, 3-fold dilution), added to wells using an ECHO dispenser (10 nL/well) and plates were centrifuged for 1 min and agitated for 2 min at room temperature prior to 30-minute incubation at 25° C. After incubation, Eu-cAMP (5 p,L) and Ulight-anti-cAMP (5 μL) reagents were added to each well, followed by centrifugation for 1 minute, agitation for 2 minutes at room temperature, and final incubation of the plates at 25° C. for 15 minutes. Plates were read using an EnVision microplate reader (excitation=320 nm; emission=615 and 655 nm). Dose-response curves were generated from duplicate wells based on percent activation calculated relative to a control GLP-1 peptide agonist that was run in parallel. EC50 values were determined by fitting percent activation as a function of compound concentration using the Hill equation (XLfit).

human GLP-1R [2] = target: T1, human GLP-1R; experiment: GLP-1R Cell Assay 1: cAMP Hunter CHO-K1 GLP1R Gs cell line, HitHunter cAMP assay; format: cell-based; details: Table 3; cAMP Hunter CHO-K1 GLP1R Gs cells; percent activity normalized to Exendin-4
How it was run: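 Luminescent enzyme-fragment-complementation immunoassay quantified cellular cAMP after 30-60 min compound exposure at 37 °C in HBSS/10 mM HEPES. Data from duplicate runs were normalised to Exendin-4 and fitted nonlinearly for EC50.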

T1 sequence (P43220 24-463): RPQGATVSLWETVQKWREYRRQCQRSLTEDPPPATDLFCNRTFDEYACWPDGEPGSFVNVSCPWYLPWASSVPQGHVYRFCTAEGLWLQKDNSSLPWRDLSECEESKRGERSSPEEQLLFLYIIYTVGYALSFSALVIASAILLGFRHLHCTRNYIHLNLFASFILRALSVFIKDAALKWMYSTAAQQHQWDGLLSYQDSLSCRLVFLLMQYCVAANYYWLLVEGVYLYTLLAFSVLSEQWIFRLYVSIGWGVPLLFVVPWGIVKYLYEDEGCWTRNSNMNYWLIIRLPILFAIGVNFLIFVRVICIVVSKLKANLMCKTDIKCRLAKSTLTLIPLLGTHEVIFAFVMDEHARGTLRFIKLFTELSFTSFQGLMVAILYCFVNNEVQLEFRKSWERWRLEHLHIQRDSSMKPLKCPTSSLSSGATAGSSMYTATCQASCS

SMILES	pEC50 (human GLP-1R [1])	pEC50 (human GLP-1R [2])
CC1=NCC(Cn2c(CN3CCC(c4cccc(OCc5ccc(C#N)cc5F)n4)CC3)nc3ccc(C(=O)O)cc32)O1 (single isomer, unassigned) [Compound 176, 2-((4-(6-((4-cyano-2-fluorobenzyl)oxy)pyridin-2-yl)piperidin-1-yl)methyl)-1-((2-methyl-4,5-dihydrooxazol-5-yl)methyl)-1H-benzo[d]imidazole-6-carboxylic acid]	5.80	–
CCn1cncc1Cn1c(CN2CC[C@]3(c4nccc(N5CCc6cc(C#N)cc(F)c6C5)n4)C[C@@H]3C2)nc2ccc(C(=O)O)cc21 (single isomer, unassigned) [Compound 186-P2]	< 5.00	–
CCn1ccnc1Cn1c(CN2CC[C@]3(c4cccc(N5CCc6cc(C#N)cc(F)c6C5)n4)C[C@@H]3C2)nc2ccc(C(=O)O)cc21 [Compound 163-P2, 2-(((1S,6R)-6-(6-(6-cyano-8-fluoro-3,4-dihydroisoquinolin-2(1H)-yl)pyridin-2-yl)-3-azabicyclo[4.1.0]heptan-3-yl)methyl)-1-((1-ethyl-1H-imidazol-2-yl)methyl)-1H-benzo[d]imidazole-6-carboxylic acid]	–	9.38
CCn1cncc1Cn1c(CN2CCC(c3cccc(OCc4nc5c(F)cc(C#N)cc5s4)n3)CC2)nc2ccc(C(=O)O)cc21 [Compound 164, 2-((4-(6-((6-cyano-4-fluorobenzo[d]thiazol-2-yl)methoxy)pyridin-2-yl)piperidin-1-yl)methyl)-1-((1-ethyl-1H-imidazol-5-yl)methyl)-1H-benzo[d]imidazole-6-carboxylic acid]	–	10.60
CCn1cncc1Cn1c(CN2CCC(c3cccc(OCc4nc5ccc(C#N)cc5s4)n3)CC2)nc2ccc(C(=O)O)cc21 [Compound 165, 2-((4-(6-((6-cyanobenzo[d]thiazol-2-yl)methoxy)pyridin-2-yl)piperidni-1-yl)methyl)-1-((1-ethyl-1H-imidazol-5-yl)methyl)-1H-benzo[d]imidazole-6-carboxylic acid]	–	10.60
N#Cc1cc(F)c2c(c1)CCN(c1cccc(C34CCN(Cc5nc6ccc(C(=O)O)cc6n5CC5CCO5)CC3C4)n1)C2 (stereo not shown) [Compound 168, 2-((6-(6-(6-cyano-8-fluoro-3,4-dihydroisoquinolin-2(1H)-yl)pyridin-2-yl)-3-azabicyclo[4.1.0]heptan-3-yl)methyl)-1-(oxetan-2-ylmethyl)-1H-benzo[d]imidazole-6-carboxylic acid]	–	7.76
CCn1cncc1Cn1c(CN2CCC(c3cccnc3OCc3ccc(C#N)cc3F)CC2)nc2ccc(C(=O)O)cc21 [Compound 169, 2-((4-(2-((4-cyano-2-fluorobenzyl)oxy)pyridin-3-yl)piperidin-1-yl)methyl)-1-((1-ethyl-1H-imidazol-5-yl)methyl)-1H-benzo[d]imidazole-6-carboxylic acid]	8.94	–
CCn1cncc1Cn1c(CN2CCC(c3cccnc3OCc3ccc(C(N)=O)cc3F)CC2)nc2ccc(C(=O)O)cc21 [Compound 170, 2-((4-(2-((4-carbamoyl-2-fluorobenzyl)oxy)pyridin-3-yl)piperidin-1-yl)methyl)-1-((1-ethyl-1H-imidazol-5-yl)methyl)-1H-benzo[d]imdiazole-6-carboxylic acid]	6.92	–
CCn1ccnc1Cn1c(CN2CCC(c3cccc(N4CCc5cc(C#N)cc(F)c5C4)n3)CC2)nc2ccc(C(=O)O)cc21 [Compound 171, 2-((4-(6-(6-cyano-8-fluoro-3,4-dihydroisoquinolin-2(1H)-yl)pyridin-2-yl)piperidin-1-yl)methyl)-1-((1-ethyl-1H-imidazol-2-yl)methyl)-1H-benzo[d]imidazole-6-carboxylic acid]	5.85	–
N#Cc1cc(F)c2c(c1)CCN(c1cccc(C3CCN(Cc4nc5ccc(C(=O)O)cc5n4Cc4ncco4)CC3)n1)C2 [Compound 172, 2-((4-(6-(6-cyano-8-fluoro-3,4-dihydroisoquinolin-2(1H)-yl)pyridin-2-yl)piperidin-1-yl)methyl)-1-(oxazol-2-ylmethyl)-1H-benzo[d]imidazole-6-carboxylic acid]	6.92	–
N#Cc1cccc2c(COc3cccc(C4CCN(Cc5nc6ccc(C(=O)O)cc6n5C[C@@H]5CCO5)CC4)n3)csc12 [Compound 173, (S)-2-((4-(6-((7-cyanobenzo[b]thiophen-3-yl)methoxy)pyridin-2-yl)piperidin-1-yl)methyl)-1-(oxetan-2-ylmethyl)-1H-benzo[d]imidazole-6-carboxylic acid]	7.88	–
O=C(O)c1ccc2nc(CN3CCC(c4cccc(OCc5csc6c(C(F)(F)F)cccc56)n4)CC3)n(C[C@@H]3CCO3)c2c1 [Compound 174, (S)-1-(oxetan-2-ylmethyl)-2-((4-(6-((7-(trifluoromethyl)benzo[b]thiophen-3-yl)methoxy)pyridin-2-yl)piperidin-1-yl)methyl)-1H-benzo[d]imidazole-6-carboxylic acid]	7.20	–
O=C(O)c1ccc2nc(CN3CCC(c4cccc(OCc5coc6c(C(F)(F)F)cccc56)n4)CC3)n(C[C@@H]3CCO3)c2c1 [Compound 175, (S)-1-(oxetan-2-ylmethyl)-2-((4-(6-((7-(trifluoromethyl)benzofuran-3-yl)methoxy)pyridin-2-yl)piperidin-1-yl)methyl)-1H-benzo[d]imidazole-6-carboxylic acid]	7.84	–
O=C(O)c1ccc2nc(CN3CCC(c4cccc(OCc5cc6cccc(C(F)(F)F)c6o5)n4)CC3)n(C[C@@H]3CCO3)c2c1 [Compound 177, (S)-1-(oxetan-2-ylmethyl)-2-((4-(6-((7-(trifluoromethyl)benzofuran-2-yl)methoxy)pyridin-2-yl)piperidin-1-yl)methyl)-1H-benzo[d]imidazole-6-carboxylic acid]	8.17	–
CCn1nncc1Cn1c(CN2CCC(c3cccc(OCc4nc5c(F)cc(C#N)cc5s4)n3)CC2)nc2ccc(C(=O)O)cc21 [Compound 178, 2-((4-(6-((6-cyano-4-fluorobenzo[d]thiazol-2-yl)methoxy)pyridin-2-yl)piperidin-1-yl)methyl)-1-((1-ethyl-1H-1,2,3-triazol-5-yl)methyl)-1H-benzo[d]imidazole-6-carboxylic acid]	8.12	–
O=C(O)c1ccc2nc(CN3CCC(c4cccc(OCc5nc(C(F)(F)F)cs5)n4)CC3)n(C[C@@H]3CCO3)c2c1 [Compound 179, (S)-1-(oxetan-2-ylmethyl)-2-((4-(6-((4-(trifluoromethyl)thiazol-2-yl)methoxy)pyridin-2-yl)piperidin-1-yl)methyl)-1H-benzo[d]imidazole-6-carboxylic acid]	7.44	–
CCn1cccc1Cn1c(CN2CCC(c3cccc(OCc4nc5c(F)cc(C#N)cc5s4)n3)CC2)nc2ccc(C(=O)O)cc21 [Compound 180, 2-((4-(6-((6-cyano-4-fluorobenzo[d]thiazol-2-yl)methoxy)pyridin-2-yl)piperidin-1-yl)methyl)-1-((1-ethyl-1H-pyrrol-2-yl)methyl)-1H-benzo[d]imidazole-6-carboxylic acid]	6.67	–
CCn1cncc1Cn1c(CN2CC[C@@]3(c4cccc(N5CCc6cc(C#N)cc(F)c6C5)n4)C[C@H]3C2)nc2ccc(C(=O)O)cc21 [Compound 184-P1, 2-(((1R,6S)-6-(6-(6-cyano-8-fluoro-3,4-dihydroisoquinolin-2(1H)-yl)pyridin-2-yl)-3-azabicyclo[4.1.0]heptan-3-yl)methyl)-1-((1-ethyl-1H-imidazol-5-yl)methyl)-1H-benzo[d]imidazole-6-carboxylic acid]	–	9.57
CCn1cncc1Cn1c(CN2CC[C@]3(c4cccc(N5CCc6cc(C#N)cc(F)c6C5)n4)C[C@@H]3C2)nc2ccc(C(=O)O)cc21 [Compound 184-P2, 2-(((1S,6R)-6-(6-(6-cyano-8-fluoro-3,4-dihydroisoquinolin-2(1H)-yl)pyridin-2-yl)-3-azabicyclo[3.1.0]heptan-3-yl)methyl)-1-((1-ethyl-1H-imidazol-5-yl)methyl)-1H-benzo[d]imidazole-6-carboxylic acid]	–	9.38

From patent US20220089578A1, “COMPOUNDS AS GLP-1R AGONISTS” (Terns Pharmaceuticals, Inc., priority 2020, published 2022)
